These results are taken from US20240132431A1, “METHOD FOR ALKYLATING ACIDIC FUNCTIONAL GROUP” (Chugai Seiyaku Kabushiki Kaisha, priority 2021, published 2024).

This experiment concerns the target T1, Bcl-2 protein (Recombinant Human Bcl-2 Protein) (Homo sapiens, UniProt P10415).
T1 construct: purchased Novus NBP2-34889
Nature of the experiment: Binding evaluation of mixture library compounds to Bcl-2 using AS-MS (affinity selection mass spectrometry). The conditions noted are these: for ASMS ratio (%) n = 1 / ASMS ratio (%) n = 2: ASMS Ratio(%)=(A−C)/B×100; for ASMS ratio (%) n = 1: replicate n = 1; for ASMS ratio (%) n = 2: replicate n = 2. In short, it runs like this: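 Pooled library of ~1200 compounds ([…] each, final) incubated with recombinant human Bcl-2 (20 μM final) in Tris-HCl pH 7.4, NaCl, Tween-20, DTT buffer, dark, 23° C., 1 h. Bound fraction recovered by SEC spin column, organic extraction, reversed-phase LC/MS. ASMS Ratio (%) = (A−C)/B×100 versus protein-free standard and SEC blank.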

Where [1] appears, read: AS-MS, mixture of 1200 compounds, Bcl-2.
Where [2] appears, read: AS-MS on the mixture of 1200 library compounds.

T1 sequence (P10415 whole entry): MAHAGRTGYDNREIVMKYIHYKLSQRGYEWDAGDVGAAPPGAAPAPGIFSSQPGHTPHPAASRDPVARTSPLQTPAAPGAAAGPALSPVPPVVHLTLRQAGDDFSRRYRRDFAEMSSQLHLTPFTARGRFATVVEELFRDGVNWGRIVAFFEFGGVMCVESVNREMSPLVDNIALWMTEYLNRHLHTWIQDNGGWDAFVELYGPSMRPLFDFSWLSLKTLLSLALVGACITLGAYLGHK

With `CCOc1cncc(-c2cc(C(=O)N3CCN(c4ccc(C(=O)NCC56CC7CC(CC(C7)C5)C6)cc4)CC3)cc(C(F)(F)F)c2)c1` [B1A040-01, N-(1-Adamantylmethyl)-4-[4-[3-(5-ethoxypyridin-3-yl)-5-(trifluoromethyl)benzoyl]piperazin-1-yl]benzamide], under setting [1], the “ASMS ratio (%) n = 1” value is 10.4% and the “ASMS ratio (%) n = 2” value is given as 8.4%.

For `CCOc1cccc(-c2cc(CN3CCN(c4ccc(C(=O)NS(=O)(=O)c5ccc(NCCSc6ccccc6)c(C(F)(F)F)c5)nn4)CC3)cc(C(F)(F)F)c2)c1` [B2R087-01, 6-[4-[[3-(3-Ethoxyphenyl)-5-(trifluoromethyl)phenyl]methyl]piperazin-1-yl]-N-[4-(2-phenylsulfanylethylamino)-3-(trifluoromethyl)phenyl]sulfonylpyridazine-3-carboxamide], the “ASMS ratio (%)” value is, setting by setting: (n = 1) 3.8%; (n = 2) 7.1%.

For “4-[4-[[4-(5-Ethoxypyridin-3-yl)-3-fluorophenyl]methyl]piperazin-1-yl]-N-propylbenzamide [B1M085-01]”, under setting [2], the “ASMS ratio (%) n = 1” value stood at 0.0% and the “ASMS ratio (%) n = 2” value was found to be 0.0%.

For “6-[4-[3-[4-(5-Ethoxypyridin-3-yl)pyrazol-1-yl]-5-(trifluoromethyl)benzoyl]piperazin-1-yl]-N-propylpyridazine-3-carboxamide [B1M030-01]”, under setting [1], the “ASMS ratio (%) n = 1” value was found to be 0.0% and the “ASMS ratio (%) n = 2” value is −5.9%.

On to `CCOc1cccc(-c2ccc(CN3CCN(c4ccc(C(=O)NCC56CC7CC(CC(C7)C5)C6)cc4)CC3)c(CC)c2)c1` [B1A049-01, N-(1-Adamantylmethyl)-4-[4-[[4-(3-ethoxyphenyl)-2-ethylphenyl]methyl]piperazin-1-yl]benzamide], for which, under setting [1], the “ASMS ratio (%) n = 1” value stood at 4.1% and the “ASMS ratio (%) n = 2” value was −9.1%.

In the case of `CCOc1cccc(-c2ccc(CN3CCN(c4ccc(C(=O)NS(=O)(=O)c5ccc(NCCSc6ccccc6)c(C(F)(F)F)c5)cc4)CC3)cc2F)c1` [B2R051-01, 4-[4-[[4-(3-Ethoxyphenyl)-3-fluorophenyl]methyl]piperazin-1-yl]-N-[4-(2-phenylsulfanylethylamino)-3-(trifluoromethyl)phenyl]sulfonylbenzamide], the “ASMS ratio (%)” value runs as follows: (n = 1) 12.7%; (n = 2) −1.8%.

As to `CCOc1cccc(-c2csc(C(=O)N3CCN(c4ccc(C(=O)NS(=O)(=O)C(C)(C)C)nn4)CC3)c2)c1` [B2L001-01, N-tert-Butylsulfonyl-6-[4-[4-(3-ethoxyphenyl)thiophene-2-carbonyl]piperazin-1-yl]pyridazine-3-carboxamide], the “ASMS ratio (%)” value runs as follows: (n = 1) −67.5%; (n = 2) 0.0%.

`CCOc1cncc(-c2csc(C(=O)N3CCN(c4ccc(C(=O)N(CC)CC)cc4)CC3)c2)c1` [B4J024-01, 4-[4-[4-(5-Ethoxypyridin-3-yl)thiophene-2-carbonyl]piperazin-1-yl]-N,N-diethylbenzamide]: under setting [2], the “ASMS ratio (%) n = 1” value was −0.6% and the “ASMS ratio (%) n = 2” value is on record as 6.8%.

In the case of `CCOc1cccc(-c2cc(CN3CCN(c4ccc(C(=O)NS(=O)(=O)CCC(F)(F)F)cc4)CC3)cc(OC(C)C)c2)c1` [B2N057-01, 4-[4-[[3-(3-Ethoxyphenyl)-5-propan-2-yloxyphenyl]methyl]piperazin-1-yl]-N-(3,3,3-trifluoropropylsulfonyl)benzamide], the “ASMS ratio (%)” value (n = 1) was 0.0% and the “ASMS ratio (%)” value (n = 2) is reported as −1.8%.

In the case of `CCOc1cncc(-c2csc(C(=O)N3CCN(c4ccc(C(=O)N(C)CC56CC7CC(CC(C7)C5)C6)nn4)CC3)c2)c1` [B3A002-01, N-(1-Adamantylmethyl)-6-[4-[4-(5-ethoxypyridin-3-yl)thiophene-2-carbonyl]piperazin-1-yl]-N-methylpyridazine-3-carboxamide], under setting [2], the “ASMS ratio (%) n = 1” value came out at 1.9% and the “ASMS ratio (%) n = 2” value is listed as −1.2%.

Consider `CCOc1cncc(-c2ccccc2CN2CCN(c3ccc(C(=O)NS(C)(=O)=O)cc3)CC2)c1` [B2I046-01, 4-[4-[[2-(5-Ethoxypyridin-3-yl)phenyl]methyl]piperazin-1-yl]-N-methylsulfonylbenzamide], for which the “ASMS ratio (%)” value is on record as −0.6% (n = 1) and 1.5% (n = 2).

Regarding `CCOc1cncc(-c2ccc(CN3CCN(c4ccc(C(=O)NS(C)(=O)=O)nn4)CC3)c3ccccc23)c1` [B2I092-01, 6-[4-[[4-(5-Ethoxypyridin-3-yl)naphthalen-1-yl]methyl]piperazin-1-yl]-N-methylsulfonylpyridazine-3-carboxamide], the “ASMS ratio (%)” value was 2.6% (n = 1) and 0.3% (n = 2).

Regarding `CCOc1cccc(-c2ccc(CN3CCN(c4ccc(C(=O)NS(=O)(=O)CC56CC7CC(CC(C7)C5)C6)nn4)CC3)cc2F)c1` [B2A077-01, N-(1-Adamantylmethylsulfonyl)-6-[4-[[4-(3-ethoxyphenyl)-3-fluorophenyl]methyl]piperazin-1-yl]pyridazine-3-carboxamide], under “AS-MS, mixture library, Bcl-2”, the “ASMS ratio (%) n = 1” value stood at 14.3% and the “ASMS ratio (%) n = 2” value is on record as 21.9%.

Take `CCOc1cncc(-c2ccc(CN3CCN(c4ccc(C(=O)NS(=O)(=O)CCC(F)(F)F)nn4)CC3)cc2C)c1` [B2N074-01, 6-[4-[[4-(5-Ethoxypyridin-3-yl)-3-methylphenyl]methyl]piperazin-1-yl]-N-(3,3,3-trifluoropropylsulfonyl)pyridazine-3-carboxamide]: the “ASMS ratio (%)” value by setting is: (n = 1) 0.0%; (n = 2) 0.0%.

Turning to `CCOc1cncc(C#Cc2cncc(C(=O)N3CCN(c4ccc(C(=O)NCC(F)(F)F)nn4)CC3)c2)c1` [B1K010-01, 6-[4-[5-[2-(5-Ethoxypyridin-3-yl)ethynyl]pyridine-3-carbonyl]piperazin-1-yl]-N-(2,2,2-trifluoroethyl)pyridazine-3-carboxamide], under setting [1], the “ASMS ratio (%) n = 1” value worked out at 0.0% and the “ASMS ratio (%) n = 2” value was 0.0%.

For the molecule `CCOc1cccc(-c2ccc(C(=O)N3CCN(c4ccc(C(=O)NS(C)(=O)=O)nn4)CC3)c3ccccc23)c1` [B2I013-01, 6-[4-[4-(3-Ethoxyphenyl)naphthalene-1-carbonyl]piperazin-1-yl]-N-methylsulfonylpyridazine-3-carboxamide], where the note is “AS-MS, mixture library, Bcl-2”, the “ASMS ratio (%) n = 1” value turned out to be 0.0% and the “ASMS ratio (%) n = 2” value is 0.0%.

In the case of `CCOc1cncc(-c2ccc(CN3CCN(c4ccc(C(=O)N(CC)CC)cc4)CC3)c(CC)c2)c1` [B4J050-01, 4-[4-[[4-(5-Ethoxypyridin-3-yl)-2-ethylphenyl]methyl]piperazin-1-yl]-N,N-diethylbenzamide], under setting [2], the “ASMS ratio (%) n = 1” value was 2.1% and the “ASMS ratio (%) n = 2” value amounted to 0.6%.

With `CCOc1cccc(-c2ccc(C(=O)N3CCN(c4ccc(C(=O)NCC56CC7CC(CC(C7)C5)C6)nn4)CC3)c3ccccc23)c1` [B1A013-01, N-(1-Adamantylmethyl)-6-[4-[4-(3-ethoxyphenyl)naphthalene-1-carbonyl]piperazin-1-yl]pyridazine-3-carboxamide], under setting [1], the “ASMS ratio (%) n = 1” value is recorded as −1.7% and the “ASMS ratio (%) n = 2” value is given as 2.4%.

As for `CCOc1cccc(-c2csc(C(=O)N3CCN(c4ccc(C(=O)NS(=O)(=O)CCC(F)(F)F)cc4)CC3)c2)c1` [B2N023-01, 4-[4-[4-(3-Ethoxyphenyl)thiophene-2-carbonyl]piperazin-1-yl]-N-(3,3,3-trifluoropropylsulfonyl)benzamide], the “ASMS ratio (%)” value worked out at 0.0% (n = 1) and 0.0% (n = 2).

On to `CCOc1cncc(-c2ccc(C(=O)N3CCN(c4ccc(C(=O)N(CC)CC)nn4)CC3)cc2C)c1` [B4J004-01, 6-[4-[4-(5-Ethoxypyridin-3-yl)-3-methylbenzoyl]piperazin-1-yl]-N,N-diethylpyridazine-3-carboxamide], for which, under setting [2], the “ASMS ratio (%) n = 1” value is on record as −2.2% and the “ASMS ratio (%) n = 2” value amounted to 0.4%.

As for `CCOc1cncc(-c2cc(CN3CCN(c4ccc(C(=O)NCC56CC7CC(CC(C7)C5)C6)nn4)CC3)cc(OC(F)(F)F)c2)c1` [B1A090-01, N-(1-Adamantylmethyl)-6-[4-[[3-(5-ethoxypyridin-3-yl)-5-(trifluoromethoxy)phenyl]methyl]piperazin-1-yl]pyridazine-3-carboxamide], under setting [1], the “ASMS ratio (%) n = 1” value is given as 3.3% and the “ASMS ratio (%) n = 2” value is given as −1.0%.

With `CCOc1cncc(-c2cnn(-c3cc(C(=O)N4CCN(c5ccc(C(=O)NS(=O)(=O)c6ccc(NCCSc7ccccc7)c(C(F)(F)F)c6)nn5)CC4)cc(C(F)(F)F)c3)c2)c1` [B2R022-01, 6-[4-[3-[4-(5-Ethoxypyridin-3-yl)pyrazol-1-yl]-5-(trifluoromethyl)benzoyl]piperazin-1-yl]-N-[4-(2-phenylsulfanylethylamino)-3-(trifluoromethyl)phenyl]sulfonylpyridazine-3-carboxamide], the “ASMS ratio (%)” value (n = 1) is on record as 14.5% and the “ASMS ratio (%)” value (n = 2) is on record as 15.8%.

Regarding `CCOc1cncc(-c2ccc(C(=O)N3CCN(c4ccc(C(=O)NS(=O)(=O)CC56CC7CC(CC(C7)C5)C6)cc4)CC3)cc2F)c1` [B2A028-01, N-(1-Adamantylmethylsulfonyl)-4-[4-[4-(5-ethoxypyridin-3-yl)-3-fluorobenzoyl]piperazin-1-yl]benzamide], for the setting “AS-MS, mixture library, Bcl-2”, the “ASMS ratio (%) n = 1” value is reported as −1.0% and the “ASMS ratio (%) n = 2” value was 1.2%.
